Several values for one entry are separate records, joined by “and”; a condition that tells them apart may be missing. Equal entries are not always repeated.
Experiments:
[1] = system: LLC1 cells clone M27 lung tumour metastases; test: Lewis lung carcinoma (LLC) model of tumour metastasis; type: in vivo, C57BL/6 mice; details: for Mean (SD) tumours/animal / % reduction compared to control (lung tumour metastases) / Total tumour burden (per group): Day 14
Protocol: The Lewis lung carcinoma model in C57BL/6 mice was used for this study. Lewis lung carcinoma is an aggressive, highly metastatic cell line. LLC1 cells clone M27 (3×10^5 cells, screened for mycoplasma) were injected on Day 0 into the tail vein of each mouse. The mice were divided into 7 groups and received the treatments outlined below. Oral administration of plant extracts was initiated 9 days prior to injection of LLC cells (i.e. on day-9) and continued for […] along with sub-optimal doses of cisplatin (see below). Group 1: […] Group 2: […] Group 3: […] Group 4: Therapeutic combination 1 (TC1) was administered to this group. […] Group 5: Therapeutic combination 2 (TC2) was administered to this group. […] Group 6: Therapeutic combination 3 (TC3) was administered to this group. […] Group 7: Therapeutic combination 4 (TC4) was administered to this group. […] At the end of the experiment (Day 14), the animals were humanely sacrificed, the lungs resected and fixed by direct immersion for approximately 24 hrs in Bouin's fixing media. Metastatic colonies on each lung surface of each mouse were counted by direct observation under a dissecting microscope in a blinded manner by three different investigators.

[2] = system: B16F10 melanoma subcutaneous tumour; test: B16F10 melanoma model of tumour growth; type: in vivo, C57BL/6 mice; details: Day 14
Protocol: The B16F10 melanoma model in C57BL/6 mice was used for this study. B16F10 cells (1×10^6 cells, screened for mycoplasma) were injected subcuteanously on Day 0 on the right flank of each mouse. The mice were divided into 9 groups and received the treatments outlined below. Plant extracts A and B (see Example VI) were used in this study.
Oral administration of plant extracts was initiated 7 days prior to injection of the B16F10 cells (i.e. on day-7) and continued for […] with or without sub-optimal doses of doxorubicin (see below).
Group 1: The vehicle used for administration of the plant extracts was used as a negative control for the experiment. Group 2: Doxorubicin (2.5 mg/kg), a standard positive control in the B16F10 melanoma model at optimal dosage, was injected intraperitoneally on days 5, 9 and 13. Group 3: Doxorubicin (1 mg/kg), a sub-optimal dose in this model, was injected intraperitoneally on days 5, 9 and 13. Group 4: Therapeutic plant extract A (PA1) was administered by gavage (200 mg/kg) from days-7 to 14. Group 5: Therapeutic plant extract B (PB1) was administered by gavage (200 mg/kg) from days-7 to 14. Group 6: Therapeutic combination 5 (TC5) was administered to this group. TC5 comprised plant extract A and doxorubicin (1 mg/kg). Plant extract A was administered by gavage (200 mg/kg) from days-7 to 14 and doxorubicin was injected intraperitoneally on days 5, 9 and 13. Group 7: Therapeutic combination 6 (TC6) was administered to this group. TC6 comprised plant extract B and doxorubicin (1 mg/kg). Plant extract B was administered by gavage (200 mg/kg) from days-7 to 14 and doxorubicin was injected intraperitoneally on days 5, 9 and 13. Group 8: Therapeutic combination 7 (TC7) was administered to this group. TC7 comprised plant extract A, plant extract B and doxorubicin (1 mg/kg). […]
The subcutaneous tumour was measured on each animal with an electronic calliper starting on day 5 and repeated on days 8, 11 and 14 and the volume of tumour was calculated according to formula: […]. […]

Row | SMILES | Mean (SD) tumours/animal ([1]; cisplatin 2 mg/kg i.p. days 1, 4, 7, 10, 13) | % reduction compared to control (lung tumour metastases) ([1]; cisplatin 2 mg/kg i.p.) | Total tumour burden (per group) ([1]; cisplatin 2 mg/kg i.p.) | body weight of animals ([1]; cisplatin 5 mg/kg dose) | Mean (SD) tumours/animal ([1]; cisplatin 5 mg/kg i.p. days 1, 4, 7, 10, 13) | % reduction compared to control (lung tumour metastases) ([1]; cisplatin 5 mg/kg i.p.) | Total tumour burden (per group) ([1]; cisplatin 5 mg/kg i.p.) | Volume (mm^3) of tumour ([2]; doxorubicin 1 mg/kg i.p. days 5, 9, 13) [mm^3] | % growth of tumour ([2]; doxorubicin 1 mg/kg i.p.) [%] | Diameter (mm) of tumour ([2]; doxorubicin 1 mg/kg i.p.) [mm]
1 | N.N.[Cl][Pt][Cl] [Cisplatin] | 24.70 | 27% and 26.7% | 346 | sharp decrease | 1.46 | 96% and 95.6% | 21 |  |  | 
2 | COc1cccc2c1C(=O)c1c(O)c3c(c(O)c1C2=O)C[C@@](O)(C(=O)CO)C[C@@H]3O[C@H]1C[C@H](N)[C@H](O)[C@H](C)O1 [Doxorubicin] |  |  |  |  |  |  |  | 2682 ± 220 | 247 ± 30 | 21.4 ± 1.1
